System: germination and nascent sprouts of potatoes
Assay: Post-storage application to washed potatoes, in line or by immersion, compared with CIPC and other essential oils
Format: in vivo, potato
Conditions: emulsifiable liquid solution applied in line to washed potatoes or by immersion in dilute aqueous solution, after storage, at ambient temperature

C=CCc1ccc(O)c(OC)c1 [eugenol]
prevention of germination and burning of nascent sprouts: more effectively than the CIPC-based formulation or other essential oils
